# Laboratory results taken from PMC11915801, “Evolutionary trajectory of bacterial resistance to antibiotics and antimicrobial peptides in Escherichia coli” (mSystems, 2025).
# Where a SMILES comes first, the peptide text is derived from it.
# Assays:
# [1] = test system: G. mellonella larvae infected with chloramphenicol-resistant strains; experiment: G. mellonella infection protection model, chloramphenicol-resistant strain; assay type: in vivo, Galleria mellonella; settings: monotreatment 30 mg/kg at 1 h post-infection, 5 days, n = 8 per group
# Protocol: (§1) The bacterial culture was uniformly diluted with saline to an OD600 of 0.35. G. mellonella larvae (n = 8 per group) were randomly divided, and sterile saline was used as the blank control. In the virulence assessment, 10 µL of bacterial solution was inoculated into each larva using a Hamilton syringe. The survival of larvae was observed and recorded daily for 7 days.
# (§2) For the larval infection protection model, larvae were infected with wild-type and antibiotic-resistant strains and treated with a dose of 30 mg/kg of drugs at the left foot of the last gastropod at 1 h post-infection, and the survival was monitored for 5 days.
# [2] = test system: chloramphenicol-resistant strains (CHL80); experiment: Disk diffusion experiment, chloramphenicol-resistant strains; assay type: cell-based, Escherichia coli; settings: drug 2,048 µg/mL, LB agar, 37°C 24 h
# Protocol: Fifty microliters of bacterial cultures was spread evenly onto LB agar. A prepared circular sterile filter paper was pasted on the center of the petri dish, and the corresponding drugs with a concentration of 2,048 µg/mL were dropped on the center of the circular filter paper. The petri dishes were placed at 37°C for 24 h, and the diameters of the sterile growth circles were measured.
# [3] = test system: G. mellonella larvae infected by the original MG1655; experiment: G. mellonella infection protection model, original MG1655; assay type: in vivo, Galleria mellonella; settings: monotreatment 30 mg/kg at 1 h post-infection, 5 days, n = 8 per group
# Protocol: as §1, §2
smiles,measurement,setting,value
"CC[C@H](C)[C@H](NC(=O)[C@H](CCCNC(=N)N)NC(=O)[C@H](CS)NC(=O)[C@H](CC(C)C)NC(=O)[C@H](CCCCN)NC(=O)[C@H](CCCCN)NC(=O)[C@H](CC(C)C)NC(=O)[C@@H](NC(=O)[C@H](CCCNC(=N)N)NC(=O)[C@H](CS)NC(=O)[C@H](CC(C)C)NC(=O)[C@H](CCCCN)NC(=O)[C@H](CCCCN)NC(=O)[C@@H](N)CC(C)C)[C@@H](C)CC)C(=O)O [LI, LI14] (H-LKKLCRILKKLCRI-OH; N-terminus and C-terminus assumed)",survival rate of larvae infected with chloramphenicol-resistant strains,[1],62.5%
same,inhibition halo on chloramphenicol-resistant strains (in words),[2],noticeable inhibitory effect
same,survival of larvae infected by the original MG1655,[3],all larvae infected by the original MG1655 died
